# Measured values as given in patent US20200239547A1, “ANTICANCER PEPTIDES” (IDP DISCOVERY PHARMA, S.L., priority 2017, published 2020).
# Starred links: 1 amine or outer side, 2 acyl side, 3 side chain; linkers in the order of their positions; H or OH if unused. Positions of bridges follow the written chain, without caps; N, C: chain ends. Non-standard residues stand in square brackets, D forms with d. Residues, ends and D or L forms follow the SMILES beside them. No end group written: not given here. ξ: configuration not given here. ξαMeNle(6-ylidene) = CC(CCCC=[*:3])(N[*:1])C(=O)[*:2]; X1 = CC(CCCCCCC=[*:3])(N[*:1])C(=O)[*:2]; R8 = C=CCCCCCC[C@@](C)(N)C(=O)O; S5 = C=CCCC[C@](C)(N)C(=O)O
# Experiments:
# [1] = test system: SCLC cell lines; test: Viability assay, summary over SCLC cell lines; assay type: cell-based; details: summary in words of Table 3
# Method: MCF-7 and NCl-H187 cells were seeded at a density of 5000 cells/well; NCl-H82 were seeded at a density of 2500 cells/well; HL-60, RPMI, U266 and NCl-H510A at 10000 cells/well in 100 μl of medium in 96 well plates. After 24 h, the compounds to be tested were added to calculate the dose/response curve at the starting concentration of 100 μM with serial dilutions (1:1). Controls are the untreated cells. Each experiment was performed in triplicate.
# (§1) Cells were incubated during 48-72 h in incubator under CO2 atmosphere at 37° C. Cell viability was measured by means of MTT (3-(4,5-dimethylthiazol-2-yl)-2,5-diphenyltetrazolium bromide) assay, Alamar Blue® (Biosource DAL1100) and Hexosaminidase activity test, consecutively, following manufacturer instructions.
# Data analysis was performed calculating the percentage of cell viability normalized vs. the values of negative control, which was considered equal to 100%. The dose/response curve was fitted through the sigmoidal equation dose-response (variable slope) and the […] values were calculated as follow: […]
# [2] = biological target: MCF-7, epithelial (breast cancer)
# Method: MCF-7, epithelial (breast cancer), ECACC: 86012803
# (§6) Cell line MCF-7 was cultured in incubator under CO2 (6%) at 37° C. in DMEM high glucose (Dulbecco's Modified Eagle Solution, Gibco-BRL 31966-21) medium with 10% fetal bovine serum inactivated (FBS) (Gibco-BRL 10106-169). Cell lines HL-60, RPMI and U266 were cultured in incubator at 37° C. in RPMI-1640 (Sigma R8758) medium with 10% of fetal bovine serum inactivated (FBS) and 2 mM glutamine (Sigma G7513).
# (§7) During the amplification step and the assays adherent cells were rinsed with DPBS (Dulbecco's Phosphate Buffered Saline, Sigma D1283) three times and afterward treated for 5 minutes with trypsin ([0.5 g/ml]/EDTA [0.2 g/ml]) (Gibco-BRL, 15400054) in solution of DPBS at 37° C., and, once detached, transferred in the culturing medium. No-adherent cells were centrifuged and transferred in the culturing medium. Cells were counted in a Neubauer chamber after labelling with Tripan-Blue.
# (§8) MTT: 1. Stock solution of MTT (475989 Calbiochem) was 5 mg/ml in PBS 1×. As negative control (experiment noise) 3 wells were treated with 20 μl/well of a solution of SDS 10% in H2O. The same control was used for Alamar Blue/Hexosaminidase. 10 μl/well of MTT solution were added and the plate was incubated for 3-4 hr. The medium was discarded and 100 μl of extracting buffer (PBS 1×, 15% SDS, 50% Na N,N-Dimethylformamide, pH 4.7) were added to each well. Plates were incubated for 16h at room temperature under orbital shaking. Absorbance at 570 nm was finally measured.
# (§9) Alamar Blue: 10 μl Alamar Blue solution was added to each well and the plates were incubated for 4 in the incubator. Fluorescence ratio at 535/590 (excitation/emission) was measured in Cytofluor (Millipore) fluorimeter. Blank control was determined by lysis of untreated cells with con 2% of Triton X100, right before adding Alamar Blue solution.
# (§10) Hexosaminidase activity test: after Alamar Blue lecture, medium was discarded and plates were rinsed once with PBS. 60 μl hexosaminidase substrate (p-nitrophenol-N-acetyl-beta-D-glucosamide 7.5 mM [Sigma N-9376], sodium citrate 0.1 M, pH 5.0, 0.25% Triton X-100) was added to each well and the plates were incubated at 37° C. for 2-5 h, according to the cell type (hexosaminidase activity changes according to the cell type). […] Blank control was the same as described before.
# (§11) Data analysis was performed calculating the percentage of cell viability normalized vs. the values of negative control, which was considered equal to 100%. The dose/response curve was fitted through the sigmoidal equation dose-response (variable slope) and the ECK values were calculated as follow:
# [3] = test system: HL-60, promyeloblast (acute myelocytic leukemia, AML)
# Method: HL-60, promyeloblast (acute myelocytic leukemia, AML), ECACC: 98070106
# as §6, §7, §8, §9, §10, §11
# [4] = test system: RPMI, lymphoblast (myeloma)
# Method: RPMI, lymphoblast (myeloma), ATCC® CCL155™
# Cell lines HL-60, RPMI and U266 were cultured in incubator at 37° C. in RPMI-1640 (Sigma R8758) medium with 10% of fetal bovine serum inactivated (FBS) and 2 mM glutamine (Sigma G7513).
# as §7, §8, §9, §10, §11
# [5] = test system: U266, lymphoblast (myeloma)
# Method: U266, lymphoblast (myeloma), ATCC® TIB196™
# as §6, §7, §8, §9, §10, §11
# Y=Bottom+(Top-Bottom)/(1+10̂{[(LogEC50-X)*HillSlope]},
# [6] = test system: NCl-H187, epithelial (small cell lung cancer, SCLC); test: Viability assay in NCl-H187; assay type: cell-based; details: H187 cell line, 48-72 h incubation
# Method: NCl-H187, epithelial (small cell lung cancer, SCLC), ATCC-CRL-5804
# (§2) Cell lines NCl-H82, NCl-H187 were cultured in incubator at 37° C. in RPMI-1640 (Sigma R8758) medium with 10% of fetal bovine serum inactivated (FBS) and 2 mM glutamine (Sigma G7513). Cell line NCl-H510A was cultured in incubator in F12K medium with 10% of fetal bovine serum inactivated (FBS).
# (§3) During the amplification step and the assays adherent cells were rinsed with DPBS (Dulbecco's Phosphate Buffered Saline, Sigma D1283) three times and afterward treated for 5 minutes with trypsin ([…]) (Gibco-BRL, 15400054) in solution of DPBS at 37° C., and, once detached, transferred in the culturing medium. […] Cells were counted in a Neubauer chamber after labelling with Tripan-Blue. […]
# as §1
# (§4) MTT: 1. […] Absorbance at 570 nm was finally measured.
# (§5) Alamar Blue: 10 μl Alamar Blue solution was added to each well and the plates were incubated for […] in the incubator. Fluorescence ratio at 535/590 (excitation/emission) was measured in Cytofluor (Millipore) fluorimeter. […]
# [7] = test system: NCl-H82, epithelial (small cell lung cancer, SCLC); test: Viability assay in NCl-H82; assay type: cell-based; details: H82 cell line, 48-72 h incubation
# Method: NCl-H82, epithelial (small cell lung cancer, SCLC), ATCC-CRL-5811
# as §2, §3, §1, §4, §5
# [8] = test system: NCl-H510A, epithelial (small cell lung cancer, SCLC); test: Viability assay in NCl-H510A; assay type: cell-based; details: H510A cell line, 48-72 h incubation
# Method: NCl-510A, epithelial (small cell lung cancer, SCLC), ATCC-HBT-124
# as §2, §3, §1, §4, §5
molecule,measurement,setting,value
CC[C@H](C)[C@H](NC(=O)[C@H](CCCCN)NC(=O)[C@@H](NC(=O)[C@H](CCC(N)=O)NC(=O)[C@@H](N)CCCNC(=N)N)[C@@H](C)CC)C(=O)N[C@@H](Cc1c[nH]c2ccccc12)C(=O)N[C@@H](Cc1ccccc1)C(=O)N[C@@H](CCC(N)=O)C(=O)N[C@@H](CC(N)=O)C(=O)N[C@@H](CCCNC(=N)N)C(=O)N[C@@H](CCCNC(=N)N)C(=O)N[C@@H](CCSC)C(=O)N[C@@H](CCCCN)C(=O)N[C@@H](Cc1c[nH]c2ccccc12)C(=O)N[C@@H](CCCCN)C(=O)N[C@@H](CCCCN)C(=O)N[C@@H](CO)C(=O)N[C@@H](CCCCN)C(=O)N[C@@H](C)C(=O)N1CCC[C@H]1C(=O)N[C@@H](CCCCN)C(=O)N[C@H](C(=O)N[C@H](C(=O)N[C@H](C(=O)N[C@@H](CC(C)C)C(=O)N[C@@H](CO)C(=O)N[C@@H](CCCCN)C(=O)N[C@@H](C)C(=O)N[C@@H](CC(C)C)C(=O)N[C@@H](CCC(=O)O)C(=O)N[C@@H](Cc1ccc(O)cc1)C(=O)N[C@@H](CC(C)C)C(=O)N[C@@H](CCC(N)=O)C(=O)N[C@@H](C)C(N)=O)[C@@H](C)CC)C(C)C)C(C)C [IDP-LLCb02],anti-cancer activity in SCLC cell lines,[1],showed anti-cancer activity
"CC(C)C[C@H](NC(=O)[C@H](C)NC(=O)[C@H](CC(C)C)NC(=O)C1(C)CCCC=CCCCCCCC(C)(NC(=O)[C@H](CCCNC(=N)N)NC(=O)[C@H](CCCCN)NC(=O)[C@@H](N)CCCNC(=N)N)C(=O)N[C@@H](CC(N)=O)C(=O)N[C@@H](CC(=O)O)C(=O)N[C@@H](CC(C)C)C(=O)N[C@@H](CCCNC(=N)N)C(=O)N[C@@H](CO)C(=O)N[C@@H](CCCNC(=N)N)C(=O)N1)C(=O)N[C@@H](CCCNC(=N)N)C(=O)N[C@@H](CC(=O)O)C(=O)N[C@@H](CCC(N)=O)C(N)=O (stereo partly shown) [IDP-LS05, RKRXNDLRSRXLALRDQ] (H-RKR[X1]NDLRSR[ξαMeNle(6-ylidene)]LALRDQ-NH2; staple 4-11; N-terminus and C-terminus assumed)",EC50,[2],> 100 µM
same,EC50,[3],~5 µM
same,EC50,[4],~6 µM
same,EC50,[5],> 100 µM
"CC(C)C[C@@H]1NC(=O)[C@H](C)NC(=O)[C@H](CC(C)C)NC(=O)[C@H](Cc2ccccc2)NC(=O)[C@H](CCCNC(=N)N)NC(=O)[C@H](CO)NC(=O)[C@](C)(NC(=O)[C@H](CC(C)C)NC(=O)[C@H](CC(=O)O)NC(=O)[C@H](CC(N)=O)NC(=O)[C@H](CCCNC(=N)N)NC(=O)[C@H](CCCNC(=N)N)NC(=O)[C@H](CCCCN)NC(=O)[C@@H](N)CCCNC(=N)N)CCCCCCC=CCCC[C@@](C)(C(=O)N[C@@H](CC(=O)O)C(=O)N[C@@H](CCC(N)=O)C(N)=O)NC1=O [IDP-LS13, RKRRNDLXSRFLALXDQ] (H-RKRRNDL[R8]SRFLAL[S5]DQ-NH2; staple 8-15; N-terminus and C-terminus assumed)",EC50,[2],~10 µM
same,EC50,[3],~7 µM
same,EC50,[4],~9 µM
same,EC50,[5],~10 µM
"CC(C)C[C@@H]1NC(=O)[C@H](C)NC(=O)[C@H](CC(C)C)NC(=O)[C@H](Cc2ccccc2)NC(=O)C(C)(NC(=O)[C@H](CO)NC(=O)[C@H](CCCNC(=N)N)NC(=O)[C@H](CC(C)C)NC(=O)[C@H](CC(=O)O)NC(=O)[C@H](CC(N)=O)NC(=O)[C@H](CCCNC(=N)N)NC(=O)[C@H](CCCNC(=N)N)NC(=O)[C@H](CCCCN)NC(=O)[C@@H](N)CCCNC(=N)N)CCCCCCC=CCCCC(C)(C(N)=O)NC(=O)[C@H](CC(=O)O)NC(=O)[C@H](CCCNC(=N)N)NC1=O (stereo partly shown) [IDP-LS15, RKRRNDLRSXFLALRDX] (H-RKRRNDLRS[X1]FLALRD[ξαMeNle(6-ylidene)]-NH2; staple 10-17 (inferred); N-terminus and C-terminus assumed)",EC50,[2],> 100 µM
same,EC50,[3],> 100 µM
same,EC50,[4],~7 µM
same,EC50,[5],~8 µM
"CC(C)C[C@@H]1NC(=O)[C@H](C)NC(=O)[C@H](CCCCN)NC(=O)[C@H](CO)NC(=O)[C@H](CC(C)C)NC(=O)C(C)(NC(=O)[C@@H](NC(=O)[C@@H](NC(=O)[C@H](CCCCN)NC(=O)[C@@H]2CCCN2C(=O)[C@H](C)N)C(C)C)C(C)C)CCCCCCC=CCCCC(C)(C(=O)N[C@@H](CC(C)C)C(=O)N[C@@H](CCC(N)=O)C(=O)N[C@@H](C)C(N)=O)NC(=O)[C@H](CCC(=O)O)NC1=O (stereo partly shown) [IDP-LS16, APKVVXLSKALEXLQA] (H-APKVV[X1]LSKALE[ξαMeNle(6-ylidene)]LQA-NH2; staple 6-13; N-terminus and C-terminus assumed)",EC50,[2],> 100 µM
same,EC50,[3],> 100 µM
same,EC50,[4],~15 µM
same,EC50,[5],~10 µM
"CC[C@H](C)[C@H](NC(=O)[C@@H](NC(=O)[C@@H](NC(=O)[C@H](CCCCN)NC(=O)[C@@H]1CCCN1C(=O)[C@H](C)N)C(C)C)C(C)C)C(=O)N[C@@H](CC(C)C)C(=O)NC1(C)CCCCCCC=CCCCC(C)(C(=O)N[C@@H](C)C(N)=O)NC(=O)[C@H](CC(C)C)NC(=O)[C@H](Cc2ccc(O)cc2)NC(=O)[C@H](CCC(=O)O)NC(=O)[C@H](CC(C)C)NC(=O)[C@H](C)NC(=O)[C@H](CCCCN)NC1=O (stereo partly shown) [IDP-LS17, APKVVILXKALEYLXA] (H-APKVVIL[X1]KALEYL[ξαMeNle(6-ylidene)]A-NH2; staple 8-15 (inferred); N-terminus and C-terminus assumed)",EC50,[2],> 100 µM
same,EC50,[3],> 100 µM
same,EC50,[4],~10 µM
same,EC50,[5],~16 µM
"RKRRNDLRSRFLALRDQ-NH2 (C-terminus assumed) [IDP-wtL05, Arg-Lys-Arg-Arg-Asn-Asp-Leu-Arg-Ser-Arg-Phe-Leu-Ala-Leu-Arg-Asp-Gln]",EC50,[2],> 100 µM
same,EC50,[3],> 100 µM
same,EC50,[4],~10 µM
same,activity in RPMI cell lines,[4]; summary in words of Table 2,shows activity
same,EC50,[5],> 100 µM
RRRRRRRRKRRNDLRSRFLALRDQ-NH2 [IDP-intwtL05],EC50,[2],> 100 µM
same,EC50,[3],> 100 µM
same,EC50,[4],> 100 µM
same,EC50,[5],> 100 µM
RRRRRRRSKAPKVVILSKALEYLQA-NH2 [IDP-LLCb01],EC50,[6],~5 µM
same,EC50,[7],~2.5 µM
same,EC50,[8],~5 µM
same,anti-cancer activity in SCLC cell lines,[1],showed anti-cancer activity
